Reference: patent US12350273B2, “Treatment of SMA” (Hoffmann-La Roche Inc., priority 2017, dated 2025)

System: FOXM1B/C transcript variants
Test: FOXM1B/C mRNA expression in Cynomolgus monkey iPSCs (RT-qPCR)
Assay type: cell-based
Settings: 24 h; for Mean FOXM1B/C relative mRNA expression (2-ΔΔCt vs control): Cynomolgus monkey iPSCs
Experimental: FIG. 5A-FIG. 5B: Effect of RO7034067 on FOXM1 mRNA expression levels in human and Cynomolgus monkey iPSCs • Cells were treated with RO7034067 for 24 hours, and FOXM1 B/C transcript variants were analyzed by RT-PCR. Data represent means±SEM of 3 repetitions and are expressed as fold change vs. controls. IC50 values are indicated. FIG. 5A. human iPSCs. FIG. 5B. Cynomolgus monkey iPSCs
Human iPSCs (hIPS_Neo_Clone_1) were cultivated in mTeSR1 (Stem Cell Technologies) as standard medium and Cynomolgus monkey iPSCs (cips_54-1285_cFIB_Clone_8) in MT medium supplemented with 10 ng/ml ActivinA and 15 ng/ml FGF2.
For gene expression profiling, stem cells were detached with Accutase (Stem Cell Technologies) and plated in 12 well plates coated with Matrigel (BD Biosciences) in the respective standard medium supplemented with 10 μM Rock inhibitor Y-27632 (Sigma-Aldrich). In order to obtain enough RNA, monkey stem cells were seeded at 15000 cells/cm2 and human stem cells were seeded at 40000 cells/cm2 24 h prior to treatment. Thereafter stem cells were treated for 24 h with serial dilutions (1:5) of test items in fresh, pre-warmed medium in a concentration range from 0.64 nM till ˜10 μM. To stop the experiment, cells were lysed in QiaGen's lysis buffer RLT with beta-mercaptoethanol.
Human and Cynomolgus monkey mRNA expression was measured with customized primer and FAM fluorescently-labeled Universal Probe Library (UPL) probes from Roche or probes from Microsynth containing a 5′ FAM label and a 3′ terminal BlackHole Dark Quencher 1 (BHQ1). The sequences of the primer and FAM labeled probes are listed as follows:
For quantitative Real-Time-PCR, cells cultivated in a 12 well plate and treated with Roche-compounds for 24 h were lysed in 500 ul/well of QiaGen's lysis buffer RLT with beta-mercaptoethanol. Total RNA was extracted with the RNeasy Mini kit combined with DNase treatment on a solid support. RNA integrity was controlled by using Nanodrop absorption spectroscopy and microfluidic capillary array electrophoresis profiles from an Agilent Bioanalyzer
2100. Between 300 ng to 800 ng of total RNA were reverse transcribed with oligo-dT primer and spiked MS2 RNA at 10 ng/uL final concentration using the Transcriptor First Strand cDNA Synthesis Kit (Roche Applied Science #04379012001) following the manufacturer's recommended protocol. The quantitative PCR was performed on a LightCycler 480 qPCR machine using 67.5 ng total RNA derived cDNA as input in a 20 μl mixture containing 1× LightCycler 480 Probes Master, 0.4 μM forward and reverse primers, and 0.2 μM FAM labeled hydrolysis probe. The temperature program consisted of pre-incubation at 95° C. for 10 min, followed by 50 cycles of amplification (95° C. for 10 s, 60° C. for 30 s, 72° C. for 5 s). Negative control reactions were conducted in the absence of cDNA template to confirm absence of cDNA contamination in the master mix. Measurements of Ct (cycle threshold)-values were performed for each sample-mRNA combination. Using the 2-ΔΔCt method (Livak K J et al. Method. Methods. 2001; 25(4):402-8), the data are presented as the fold change in gene expression normalized to an endogenous reference gene and relative to the untreated control. To derive individual ΔCt values, the Ct value for each target mRNA of each sample was normalized to the Ct value of the endogenous reference mRNA of GAPDH (glyceraldehyde-3-phosphate dehydrogenase). The […] was calculated by subtracting the ΔCt value of the vehicle-control group from the respective ΔCt value of each treatment group. Resultant expression ratios (2-ΔΔCt) mirrored treatment-related mRNA expression changes versus vehicle-controls. […] The model to derive the IC50 assumes that the dose response curves has a standard slope, equal to a Hill slope (or slope factor) of −1.0. Model equation: Y=Bottom+(Top-Bottom)/(1+10^((X-Log IC50))); with Y being the response data and X being log 10 concentrations in μM.

`Cc1cn2nc(-c3cc(=O)n4cc(N5CCNC6(CC6)C5)ccc4n3)cc(C)c2n1` [RO7034067, 7-(4,7-diazaspiro[2.5]octan-7-yl)-2-(2,8-dimethylimidazo[1,2-b]pyridazin-6-yl)pyrido[1,2-a]pyrimidin-4-one] was tested, and the “Mean FOXM1B/C relative mRNA expression (2-ΔΔCt vs control)” value (0.64 nM) was 0.967, the “Mean FOXM1B/C relative mRNA expression (2-ΔΔCt vs control)” value (3.2 nM) was 0.990 and the “Mean FOXM1B/C relative mRNA expression (2-ΔΔCt vs control)” value (16 nM) was 0.963. The “Mean FOXM1B/C relative mRNA expression (2-ΔΔCt vs control)” value (80 nM) was 0.704, the “Mean FOXM1B/C relative mRNA expression (2-ΔΔCt vs control)” value (400 nM) was 0.176 and the “Mean FOXM1B/C relative mRNA expression (2-ΔΔCt vs control)” value (2000 nM) was 0.023. The “Mean FOXM1B/C relative mRNA expression (2-ΔΔCt vs control)” value (10000 nM) was 0.037 and the IC50 (Macaca fascicularis, iPSC, monkey iPSCs, read-out: IC50 on expression levels of FOXM1B/C) was 155 nM.
